# Assay results: the OligoGym collection
# These antisense oligonucleotides have a phosphorothioate backbone; sugars and methylation of C are not fully specified.
# Assays:
# Conditions in all cases: ASO
# RAF1 = biological target: RAF1
# AKT2 = biological target: AKT2
# PRKCA = biological target: PRKCA
# NSMAF = biological target: NSMAF
# Agtr1a (rat) = biological target: Agtr1a (rat)
# Further: test concentration or dose not given here.
sequence,measurement,setting,value
ACCATCAACATCCACTTGCG,remaining target (mRNA or protein) (fraction of control),RAF1,≥ 1
TGTGATTGTGATGGACTG,remaining target (mRNA or protein) (fraction of control),AKT2,0.3
AGTCGGTGCAGTGGCTGGAG,remaining target (mRNA or protein) (fraction of control),PRKCA,0.88
AAGAGAGAGACCCTGAACAG,remaining target (mRNA or protein) (fraction of control),PRKCA,0.62
ATCTGTCCTCCTTGTCTC,remaining target (mRNA or protein) (fraction of control),NSMAF,0.47
GCAGAGGCTGGGGACATTGA,remaining target (mRNA or protein) (fraction of control),PRKCA,0.81
CCCCAACCACCTCTTGCTCC,remaining target (mRNA or protein) (fraction of control),PRKCA,0.39
ATCTGCCATAGAAGCATT,remaining target (mRNA or protein) (fraction of control),NSMAF,0.56
GTGATGGGCATGGCAGTGTC,remaining target (mRNA or protein) (fraction of control),Agtr1a (rat),0.29
ACTGTGTGAGCGACTTCA,remaining target (mRNA or protein) (fraction of control),AKT2,0.38
CTACGGAGAAGTTGTTTA,remaining target (mRNA or protein) (fraction of control),AKT2,0.42
CTTCAGGCTATTGACTAG,remaining target (mRNA or protein) (fraction of control),NSMAF,0.46
CTGGCGTAGAGGTTGAAGCT,remaining target (mRNA or protein) (fraction of control),Agtr1a (rat),0.41
TGTGTCCGTGATGCACAC,remaining target (mRNA or protein) (fraction of control),NSMAF,0.24
CCGCTGCTTGAGGCTGTT,remaining target (mRNA or protein) (fraction of control),AKT2,0.29
GATGCAGCTTAAACAATTCT,remaining target (mRNA or protein) (fraction of control),RAF1,0.99
TCAAATGGAGGCTGCCCGGC,remaining target (mRNA or protein) (fraction of control),PRKCA,0.66
TCCCGCCTGTGACATGCATT,remaining target (mRNA or protein) (fraction of control),RAF1,0.05
GATGGTGATGGGCATGGCAG,remaining target (mRNA or protein) (fraction of control),Agtr1a (rat),0.32
AACAGAGGGTTCAGGCAGTT,remaining target (mRNA or protein) (fraction of control),Agtr1a (rat),0.29
TGGCATTCTGCTACGGAG,remaining target (mRNA or protein) (fraction of control),AKT2,0.18
CCTGCTGGCTTCTCCTCCTC,remaining target (mRNA or protein) (fraction of control),RAF1,0.92
GCGGTCGATGCTGAGACACG,remaining target (mRNA or protein) (fraction of control),Agtr1a (rat),0.35
TCAGGGCTGGACTGCCTGCT,remaining target (mRNA or protein) (fraction of control),RAF1,0.52
GGGTGCCTGGTGTTCTGG,remaining target (mRNA or protein) (fraction of control),AKT2,0.3
TTGTCAGGTGCAATAAAAAC,remaining target (mRNA or protein) (fraction of control),RAF1,0.88
AGACACGTGTGAAGGAACAC,remaining target (mRNA or protein) (fraction of control),Agtr1a (rat),0.5
TTGAGCATGGGGAATGTGGG,remaining target (mRNA or protein) (fraction of control),RAF1,0.63
CTGATTTCCAAAATCCCATG,remaining target (mRNA or protein) (fraction of control),RAF1,0.26
AGATCCCGGAAGGTTCCT,remaining target (mRNA or protein) (fraction of control),NSMAF,0.22
TTTAGGTAGATGTCGGAA,remaining target (mRNA or protein) (fraction of control),NSMAF,0.52
TCGGTGACTGTGTGAGCG,remaining target (mRNA or protein) (fraction of control),AKT2,0.34
ATGATGACTTCCTTTCGC,remaining target (mRNA or protein) (fraction of control),AKT2,0.43
CGGGAGGCGGTCACATTCGG,remaining target (mRNA or protein) (fraction of control),RAF1,0.25
GACTCCCATACATGAACT,remaining target (mRNA or protein) (fraction of control),NSMAF,0.51
GGCTCTATGCTGTTCAAA,remaining target (mRNA or protein) (fraction of control),NSMAF,0.39
AGAGGGTTCAGGCAGTTGTT,remaining target (mRNA or protein) (fraction of control),Agtr1a (rat),0.3
TTTGTGAAGTGTCTATTG,remaining target (mRNA or protein) (fraction of control),NSMAF,0.51
GGGTTCAGGCAGTTGTTAAA,remaining target (mRNA or protein) (fraction of control),Agtr1a (rat),0.29
ATGGGGTGCACAAACTGGGG,remaining target (mRNA or protein) (fraction of control),PRKCA,0.94
CGCCGTGGAGTCGTTGCCCG,remaining target (mRNA or protein) (fraction of control),PRKCA,0.54
CCGCATCCACTCCTCCCT,remaining target (mRNA or protein) (fraction of control),AKT2,0.12
TGTGTGGCCCTGTATTCT,remaining target (mRNA or protein) (fraction of control),NSMAF,0.38
GGGAGCGTCGAATTCCGAGA,remaining target (mRNA or protein) (fraction of control),Agtr1a (rat),0.21
AGCCGTGGCCTTAAAATTTT,remaining target (mRNA or protein) (fraction of control),PRKCA,0.84
CACTGCGGGGAGGGCTGGGG,remaining target (mRNA or protein) (fraction of control),PRKCA,≥ 1
CAAGAAAACCTGTATTCCTG,remaining target (mRNA or protein) (fraction of control),RAF1,≥ 1
CCAGCCTTCTTTGATGAC,remaining target (mRNA or protein) (fraction of control),AKT2,0.25
ATACAGTCTCTCAAAGGA,remaining target (mRNA or protein) (fraction of control),NSMAF,0.73
GGTATAGCTGGTGAGAATGAT,remaining target (mRNA or protein) (fraction of control),Agtr1a (rat),0.46
GCTCCATTGATGCAGCTTGA,remaining target (mRNA or protein) (fraction of control),RAF1,0.63
CGTGCGTCCTCTGCGTGG,remaining target (mRNA or protein) (fraction of control),AKT2,0.14
GTCTGGCGCTGCACCACTCT,remaining target (mRNA or protein) (fraction of control),RAF1,0.35
CTTTGATGACAGACACCT,remaining target (mRNA or protein) (fraction of control),AKT2,0.23
TTAAAATAACATAATTGAGG,remaining target (mRNA or protein) (fraction of control),RAF1,0.93
CTGCCTCAGCGCCCCTTTGC,remaining target (mRNA or protein) (fraction of control),PRKCA,0.47
CTGGGCTGTTTGGTGCCTTA,remaining target (mRNA or protein) (fraction of control),RAF1,0.8
GAGTGTTATCTGGACCAC,remaining target (mRNA or protein) (fraction of control),NSMAF,0.28
GCATGGCTACCTTCTCAT,remaining target (mRNA or protein) (fraction of control),NSMAF,0.15
TGTAGCCAACAGCTGGGGCT,remaining target (mRNA or protein) (fraction of control),RAF1,0.96
TTTCCTTTCATGGTGACT,remaining target (mRNA or protein) (fraction of control),NSMAF,0.43
TACACTGACATCATGTTC,remaining target (mRNA or protein) (fraction of control),NSMAF,0.43
CACAGCATATACTCTGGT,remaining target (mRNA or protein) (fraction of control),NSMAF,0.35
CTGCAGCATGTAGCTCTC,remaining target (mRNA or protein) (fraction of control),NSMAF,0.83
GTCAGCCATGGTCCCCCCCC,remaining target (mRNA or protein) (fraction of control),PRKCA,0.46
ACTCCATCACAAAGCACA,remaining target (mRNA or protein) (fraction of control),AKT2,0.2
GCCGTGCCTCCTTTTGTA,remaining target (mRNA or protein) (fraction of control),NSMAF,0.47
TTCTCCTCCTCCCCTGGCAG,remaining target (mRNA or protein) (fraction of control),RAF1,0.8
